Our source for the IC50 values is US9771378B2 (Denali Therapeutics, Inc., priority 2014, dated 2017).

SMILES strings stand for the structures.

The IC50 is the midpoint of a concentration-inhibition curve.

The subject of this experiment is Aβ42 (human neuroglioma H4 cells expressing human wild type APP751). In words: In vitro cell screening assay with sandwich ELISA quantification of Aβ42 peptide. The settings on record: H4 cells stably expressing human wild type APP751; Pro293 chemically defined medium; compounds 0.003-10 μM; incubated overnight (16-18 h); supernatant Aβ42 by sandwich ELISA; normalized to DMSO and DAPT; read-out: Aβ42 H4 Prot Fre IC50. The format is cell-based. The procedure:
Human neuroglioma H4 cells were transfected with a pcDNA3.1 plasmid expressing human wild type APP751 cDNA and a stable cell line was generated using G418 selection. Cells are plated at 15,000 cells/well in Costar 96-well plates and placed at 37° C. and 5% CO2. Six hours after plating, cells are washed three times with Pro293™ chemically defined medium, followed by addition of compounds (0.003-10 μM, final DMSO concentration of 0.33%). Plates were incubated overnight (16-18 h) and supernatant was removed for quantification of AP peptides by sandwich ELISA. Cytotoxicity was evaluated using Cell-Titer 96W AQueous One Solution Cell Proliferation Assay according to the manufacturer's protocol.
ELISA Measurements of Aβ Peptides
Aβ peptide levels were quantified by sandwich ELISA. 96-well plates are coated with C-terminal specific Aβ antibodies recognizing either Aβ37, Aβ38, Aβ40, Aβ42, Aβ43 or a N-terminal specific Aβ antibody to detect Aβ 1-x. Plates are then blocked overnight at 4° C. with 1% bovine serum albumin (BSA) in PBS-T. Plates are washed and 100 μl of cultured cell supernatant or synthetic Aβ peptide standards and a detection antibody (4G8-HRP) are applied to the blocked plate and incubated overnight at 4° C. The next day, wells are washed before the addition […] of detection substrate (TMB peroxidase). Plates are then read for absorbance at 450 nm on a Molecular Devices SpectraMax M5e Microplate Reader.
IC50 values were calculated from values reported as percent of DMSO controls using nonlinear regression, based on a sigmoidal dose-response (variable slope) model. GraphPAD software from Prism used for calculation.
Regarding `COc1cc(Nc2ncc3c(n2)N(C)C(c2ccc(C(F)(F)F)cc2C(F)(F)F)CO3)ccc1-n1cnc(C)c1` (single isomer, unassigned; (-)) [Example 168A], the half-maximal inhibitory concentration (IC50) came to 566 nM.

Consider `Cc1cn(-c2ccc(Nc3ncc4c(n3)N(C)C(c3cc(F)c(F)c(F)c3)CO4)cc2F)cn1` (single isomer, unassigned; (-)) [Example 118B], for which the half-inhibitory concentration (IC50) came out at 1340 nM.

For the compound `Cc1cn(-c2ccc(Nc3ncc4c(n3)N(C)C(c3cc(F)cc(F)c3)CO4)cc2C#N)cn1` (single isomer, unassigned; (+)) [Example 203A, (+)-5-((7-(3,5-difluorophenyl)-8-methyl-7,8-dihydro-6H-pyrimido [5,4-b] [1, 4]oxazin-2-yl)amino)-2-(4-methyl-1H-imidazol-1-yl) benzonitrile], the IC50 amounted to 16 nM.

Regarding `Cc1cn(-c2ccc(Nc3ncc4c(n3)N(C)C(C)CO4)cc2OC(F)(F)F)cn1` (single isomer, unassigned; (-)) [Example 213A], the IC50 was more than 3000 nM.

Consider `COc1cc(Nc2ncc3c(n2)N(C)C(c2ccccc2C)CO3)cnc1-n1cnc(C)c1` (single isomer, unassigned; (+)) [Example 171A], for which the IC50 is 11 nM.

For `COc1cc(Nc2ncc3c(n2)N(C)C(c2ccccc2C)CO3)cnc1-n1cnc(C)c1` (single isomer, unassigned; (-)) [Example 171B], the IC50 is 67 nM.

Consider `COc1cc(Nc2ncc3c(n2)N2CCC(F)(F)C2CO3)cnc1-n1cnc(C)c1` (single isomer, unassigned; (+)) [Example 305A, (+)-7,7-difluoro-N-(5-methoxy-6-(4-methyl-1H-imidazol-1-yl)pyridin-3-yl)-6a, 7,8,9-tetrahydro-6H-pyrimido [5,4-b] pyrrolo [1,2-d] [1, 4] oxazin-2-amine], for which the IC50 is 132 nM.

For the compound `Cc1cn(-c2ccc(Nc3ncc4c(n3)N(C)C(c3ccccc3C)CO4)cc2)cn1` (single isomer, unassigned; (-)) [Example 43B], the 50% inhibitory concentration (IC50) was more than 300 nM.

Turning to `COc1cc(Nc2ncc3c(n2)N(C)C2(COC2)CO3)cnc1-n1cnc(C)c1` [Example 272], the IC50 was 537 nM.

In the case of `COc1cc(Nc2ncc3c(n2)N(C)[C@@H](c2ccccc2)CO3)ccc1-n1cnc(C)c1` [Example 21A, (S)—N-(3-methoxy-4-(4-methyl-1H-imidazol-1-yl)phenyl)-8-methyl-7-phenyl-7,8-dihydro-6H-pyrimido[5,4-b][1,4]oxazin-2-amine], the half-maximal inhibitory concentration (IC50) was 22 nM.

With `Cc1cn(-c2ccc(Nc3ncc4c(n3)N(C)C(c3ccccc3)CO4)cc2F)cn1` (single isomer, unassigned; (+)) [Example 25A], the IC50 stood at 14 nM.

Regarding `COc1nc(Nc2ncc3c(n2)N(C)C(c2cc(F)cc(F)c2)CO3)ccc1-c1ccnc(C)n1` (single isomer, unassigned; (+)) [Example 183A], the IC50 was more than 3000 nM.

On to `COc1ccc(C2COc3cnc(Nc4ccc(-n5cnc(C)c5)c(OC)c4)nc3N2C)c(C)c1` (single isomer, unassigned; (-)) [Example 199B], for which the IC50 turned out to be 95 nM.

Take `Cc1cn(-c2ccc(Nc3ncc4c(n3)N(C)C(C)CO4)cn2)cn1` (single isomer, unassigned; (-)) [Example 194B]: the IC50 was more than 3000 nM.

`COc1cc(Nc2ncc3c(n2)N(C)C2(CO3)CC(F)(F)C2)ccc1-n1cnc(Cl)c1` [Example 277]: the IC50 was determined as 97 nM.

`COc1cc(Nc2ncc3c(n2)N(C)C(c2cc(F)c(F)c(F)c2)CO3)ccc1-c1ccnc(C)c1` (single isomer, unassigned; (+)) [Example 39A]: the IC50 came out at 41 nM.

As to `Cc1cn(-c2ccc(Nc3ncc4c(n3)N(C)C(c3cc(C(F)(F)F)ccc3Cl)CO4)cc2F)cn1` (single isomer, unassigned; (+)) [Example 173A], the IC50 turned out to be 72 nM.

With `COc1cc(Nc2ncc3c(n2)N(C)C(c2cc(Cl)ccc2C(F)(F)F)CO3)ccc1-n1cnc(C)c1` (single isomer, unassigned; (-)) [Example 165B], the IC50 was determined as 79 nM.

For the compound `COc1cc(Nc2ncc3c(n2)N(C)C(c2cc(F)cc(F)c2)CO3)ccc1-n1cnc(C)n1` (single isomer, unassigned; (-)) [Example 244B], the IC50 was 935 nM.

Take `Cc1cc(-c2ccc(Nc3ncc4c(n3)N(C)C(c3cc(F)cc(F)c3)CO4)cc2)ccn1` (racemic) [Example 28]: the half-inhibitory concentration (IC50) was 90 nM.

Consider `Cc1cn(-c2ccc(Nc3ncc4c(n3)N(C)C(c3cc(F)cc(F)c3)CO4)nc2C#N)cn1` (single isomer, unassigned; (-)) [Example 192A, (−)-6-((7-(3,5-difluorophenyl)-8-methyl-7,8-dihydro-6H-pyrimido [5,4-b] [1, 4]oxazin-2-yl)amino)-3-(4-methyl-1H-imidazol-1-yl) picolinonitrile], for which the IC50 is more than 3000 nM.

Take `Cc1cn(-c2ccc(Nc3ncc4c(n3)N(C)C(c3ccc(Cl)cc3Cl)CO4)cc2F)cn1` (single isomer, unassigned; (+)) [Example 96A]: the IC50 is 76 nM.

As to `Cc1cn(-c2ccc(Nc3ncc4c(n3)N(C)C(c3cc(F)c(F)c(F)c3)CO4)cc2)cn1` (single isomer, unassigned; (+)) [Example 115B], the 50% inhibitory concentration (IC50) came out at 22 nM.

For `COc1cc(Nc2ncc3c(n2)N(C)[C@@H](C(C)(C)C)CO3)ccc1-n1cnc(C)c1` [Example 240], the IC50 is 21 nM.

As for `Cc1cc(-c2ccc(Nc3ncc4c(n3)N(C)C(c3ccccc3)CO4)cc2F)ccn1` (single isomer, unassigned; (-)) [Example 27B], the IC50 is 2100 nM.

Take `COc1cc(Nc2ncc3c(n2)N2C(=O)CCC2CO3)cnc1-n1cnc(C)c1` (single isomer, unassigned; (-)) [Example 302B, (−)-2-((5-methoxy-6-(4-methyl-1H-imidazol-1-yl)pyridin-3-yl)amino)-6,6a, 7,8-tetrahydro-9H-pyrimido [5,4-b] pyrrolo [1,2-d] [1, 4] oxazin-9-one]: the IC50 was determined as 2900 nM.

Consider `COc1cc(Nc2ncc3c(n2)N(C)C(C(F)(F)F)CO3)cnc1-n1cnc(C)c1` (single isomer, unassigned; (+)) [Example 193A], for which the IC50 came out at 908 nM.

As for `COc1cc(Nc2ncc3c(n2)N(C)C(c2cc(F)cc(F)c2)CO3)cnc1-n1cnc(C(F)(F)F)c1` (single isomer, unassigned; (+)) [Example 206A], the IC50 stood at 27 nM.

Take `Cc1cc(-c2ccc(Nc3ncc4c(n3)N(C)C(c3ccccc3C)CO4)cc2F)ccn1` (racemic) [Example 32]: the half-maximal inhibitory concentration (IC50) was 168 nM.

Turning to `COc1cc(Nc2ncc3c(n2)N(C)C(C2(C(F)(F)F)CC2)CO3)ccc1-n1cnc(C)c1` (single isomer, unassigned; (+)) [Example 245B], the IC50 was found to be 22 nM.

`Cc1cn(-c2ccc(Nc3ncc4c(n3)N(C)C3(CCCC3)CO4)nc2)cn1` [Example 263]: the IC50 is more than 3000 nM.

In the case of `Cc1cc(-c2ccc(Nc3ncc4c(n3)N(C)C(c3cc(F)cc(F)c3)CO4)cc2)ccn1` (single isomer, unassigned; (+)) [Example 28B], the IC50 turned out to be 60 nM.

Take `COc1cc(Nc2ncc3c(n2)N(C)[C@H](c2ccccc2)CO3)ccc1-n1cnc(C)c1` [Example 22A, (R)—N-(3-methoxy-4-(4-methyl-1H-imidazol-1-yl)phenyl)-8-methyl-7-phenyl-7,8-dihydro-6H-pyrimido[5,4-b][1,4]oxazin-2-amine]: the IC50 is 87 nM.

`COc1cc(Nc2ncc3c(n2)N(C)C(C2COC2)CO3)ccc1-n1cnc(C)c1` (single isomer, unassigned; (+)) [Example 241B]: the IC50 was 342 nM.

As for `COc1cc(Nc2ncc3c(n2)N(C)[C@@H](C2CC2)CO3)ccc1-n1cnc(C)c1` [Example 224], the IC50 came to 22 nM.

Take `Cc1cn(-c2ccc(Nc3ncc4c(n3)N(C)C(c3cc(F)cc(F)c3)CO4)cc2)cn1` (single isomer, unassigned; (-)) [Example 23A]: the IC50 is 2040 nM.

For `Cc1cn(-c2ccc(Nc3ncc4c(n3)N(C)C(c3cc(F)c(F)cc3F)CO4)cc2F)cn1` (single isomer, unassigned; (+)) [Example 98A], the IC50 came to 20 nM.

Regarding `COc1cc(Nc2ncc3c(n2)N(C)C(c2cc(F)cc(F)c2)CO3)ncc1-n1cnc(C)c1` (single isomer, unassigned; (-)) [Example 220A], the IC50 was more than 3000 nM.

On to `CN1c2nc(Nc3ccc(C#N)cc3)ncc2OCC1C(F)(F)F` (single isomer, unassigned; (+)) [Example 226A, (+)-4-((8-methyl-7-(trifluoromethyl)-7,8-dihydro-6H-pyrimido [5,4-b] [1, 4]oxazin-2-yl)amino) benzonitrile], for which the IC50 is more than 3000 nM.

`COc1cc(Nc2ncc3c(n2)N(C)C(c2ccc(F)cc2)CO3)ccc1-n1cnc(C)c1` (single isomer, unassigned; (-)) [Example 49A]: the IC50 stood at 191 nM.

In the case of `Cc1cn(-c2ccc(Nc3ncc4c(n3)N(C)C(c3ccc(F)cc3F)CO4)cc2F)cn1` (single isomer, unassigned; (-)) [Example 69B], the concentration for half-maximal inhibition (IC50) is more than 3000 nM.
